From patent US8236947B2, “Quinoline derivatives and their use as 5-HT6 ligands” (Glaxo Group Limited, priority 2002, dated 2012)
Structures can show the parent of a compound that is named as a salt.

Test system: not given
Experiment: not given
Conditions: not given
For `C[C@H]1CN(c2cccc3cc(S(=O)(=O)c4ccccc4)cnc23)CCN1` (as salt: hydrochloride) [Example E13, (S)-8-(3-Methyl)piperazin-1-yl-3-phenylsulfonylquinoline hydrochloride], the melting point was 266 to 269 °C (dec.).

Biological target: human cloned 5-HT6 receptors (Homo sapiens, UniProt P50406)
Sequence (P50406 whole entry): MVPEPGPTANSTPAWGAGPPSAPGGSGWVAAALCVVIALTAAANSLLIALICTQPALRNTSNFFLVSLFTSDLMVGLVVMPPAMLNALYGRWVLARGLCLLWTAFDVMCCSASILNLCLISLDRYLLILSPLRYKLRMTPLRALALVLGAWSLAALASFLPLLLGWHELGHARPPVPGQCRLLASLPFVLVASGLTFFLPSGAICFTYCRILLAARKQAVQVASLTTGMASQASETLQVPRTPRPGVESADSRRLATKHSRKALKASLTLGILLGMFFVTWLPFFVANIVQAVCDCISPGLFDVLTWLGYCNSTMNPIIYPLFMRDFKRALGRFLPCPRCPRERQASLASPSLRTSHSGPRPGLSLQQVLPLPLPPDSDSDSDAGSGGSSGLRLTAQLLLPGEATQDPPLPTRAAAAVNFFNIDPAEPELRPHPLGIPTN
Experiment: affinity for the 5-HT6 receptor (procedures outlined in WO98/27081)
Format: binding
Conditions: not given
For `O=S(=O)(c1ccccc1)c1cnc2c(N3CCNCC3)c(Cl)ccc2c1` [Example E10, 7-Chloro-3-phenylsulfonyl-8-piperazin-1-yl-quinoline hydrochloride], the Ki was < 10 nM.

Same assay, conditions: human cloned 5-HT6 receptors; read-out: pKi values at human cloned 5-HT6 receptors (converted)
For `O=S(=O)(c1ccc(Cl)cc1)c1cnc2c(N3CCNCC3)cccc2c1` [Example E6, 3-(4-Chloro)phenylsulfonyl-8-piperazin-1-yl-quinoline hydrochloride], the Ki was < 10 nM.
With `CCN1CCN(c2cccc3cc(S(=O)(=O)c4ccccc4)cnc23)CC1` [Example E17, 8-(4-Ethyl-piperazin-1-yl)-3-phenylsulfonylquinoline hydrochloride] the Ki was < 10 nM.
In the case of `O=S(=O)(c1cccc(C(F)(F)F)c1)c1cnc2c(N3CCNCC3)cccc2c1` [Example E9, 8-Piperazin-1-yl-3-(3-trifluoromethyl)phenylsulfonylquinoline hydrochloride], the Ki is reported as < 10 nM.
In the case of `C[C@@H]1CN(c2cccc3cc(S(=O)(=O)c4ccccc4)cnc23)CCN1` [Example E12, (R)-8-(3-Methyl)piperazin-1-yl-3-phenylsulfonylquinoline hydrochloride], the Ki is reported as < 10 nM.
For `O=S(=O)(c1cnc2c(N3CCNCC3)cccc2c1)c1ccccc1F` [Example E5, 3-(2-Fluoro)phenylsulfonyl-8-piperazin-1-yl-quinoline hydrochloride], the Ki was < 10 nM.
With `O=S(=O)(c1ccccc1)c1cnc2c(N3CCN4CCCC4C3)cccc2c1` (centres unmarked) [Example E37] the Ki was < 10 nM.
For `O=S(=O)(c1cnc2c(N3CCNCC3)cccc2c1)c1ccccc1Cl` [Example E3, 3-(2-Chloro)phenylsulfonyl-8-piperazin-1-yl-quinoline hydrochloride], the Ki was < 10 nM.
With `O=S(=O)(c1ccccc1)c1cnc2c(N3CCCNCC3)cccc2c1` [Example E14, 8-Homopiperazin-1-yl-3-phenylsulfonylquinoline hydrochloride] the Ki was < 10 nM.
In the case of `C[C@H]1CN(c2cccc3cc(S(=O)(=O)c4ccccc4)cnc23)CCN1` [Example E13, (S)-8-(3-Methyl)piperazin-1-yl-3-phenylsulfonylquinoline hydrochloride], the Ki is reported as < 10 nM.
With `O=S(=O)(c1cccc(F)c1)c1cnc2c(N3CCNCC3)cccc2c1` [Example E7, 3-(3-Fluoro)phenylsulfonyl-8-piperazin-1-yl-quinoline hydrochloride] the Ki was < 10 nM.
In the case of `O=S(=O)(c1cccc(Cl)c1)c1cnc2c(N3CCNCC3)cccc2c1` [Example E4, 3-(3-Chloro)phenylsulfonyl-8-piperazin-1-yl-quinoline hydrochloride], the Ki is reported as < 10 nM.
With `CN1CCN(c2cccc3cc(S(=O)(=O)c4ccccc4)cnc23)CC1` [Example E1, 8-(4-Methyl-piperazin-1-yl)-3-phenylsulfonylquinoline] the Ki was < 10 nM.
With `O=S(=O)(c1ccccc1)c1cnc2c(N3C[C@@H]4C[C@H]3CN4)cccc2c1` [Example E43, 3-Phenylsulfonyl 8-({1S, 4S}2,5-diazabicyclo[2.2.1]heptan-2-yl) quinoline hydrochloride] the Ki was < 10 nM.
With `Cc1cc(N2CCNCC2)c2ncc(S(=O)(=O)c3ccccc3)cc2c1` [Example E11, 6-Methyl-3-phenylsulfonyl-8-piperazin-1-yl-quinoline hydrochloride] the Ki was < 10 nM.
With `O=S(=O)(c1cnc2c(N3CCNCC3)cccc2c1)c1ccc(Br)cc1OC(F)(F)F` [Example E8, 3-(4-Bromo-2-trifluoromethoxy)phenylsulfonyl-8-piperazin-1-yl-quinoline hydrochloride] the Ki was < 10 nM.
